Consider 39 compounds from US7851637B2, “Compounds and methods for inhibiting the interaction of BCL proteins with binding partners” (Infinity Pharmaceuticals, Inc., priority 2004, dated 2010).

The target in one test is Bcl-xL (Homo sapiens, UniProt Q07817). In words: Bcl-xL binding affinity analysis (fluorescence polarization binding assay). Further details: scale not given here. The method in brief: (§1)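 Compounds were tested in vitro for association with the purified target, with binding quantified from the change in fluorescence polarization.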
The target in a further test is Bcl-2 (Homo sapiens, UniProt P10415). In words: Bcl-2 binding affinity analysis (fluorescence polarization binding assay). The method, boiled down: as §1
Bcl-2, sequence (P10415 whole entry): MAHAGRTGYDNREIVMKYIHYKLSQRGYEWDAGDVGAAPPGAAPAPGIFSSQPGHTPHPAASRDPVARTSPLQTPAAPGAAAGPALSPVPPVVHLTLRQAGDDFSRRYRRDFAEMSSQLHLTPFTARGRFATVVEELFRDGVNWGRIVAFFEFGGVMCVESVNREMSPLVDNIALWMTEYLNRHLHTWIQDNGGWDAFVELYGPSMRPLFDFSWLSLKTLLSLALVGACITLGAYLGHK

Bcl-xL, sequence (Q07817 whole entry): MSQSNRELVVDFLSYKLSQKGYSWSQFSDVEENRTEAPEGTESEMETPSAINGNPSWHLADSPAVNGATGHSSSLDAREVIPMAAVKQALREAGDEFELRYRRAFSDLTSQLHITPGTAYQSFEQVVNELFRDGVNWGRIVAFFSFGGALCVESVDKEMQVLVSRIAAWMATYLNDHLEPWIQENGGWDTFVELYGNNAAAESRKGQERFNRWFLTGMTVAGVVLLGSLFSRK

Regarding `C[C@@H]1[C@@H](NC(=O)[C@@H]2[C@H]([C@H](C)O)[C@H](CO)ON2Cc2cccc(N(CCCN(C)C)CCCN(C)C)c2)C[C@H]2C[C@@H]1C2(C)C` [Compound 583], the “Bcl-XL binding affinity Ki” value at Bcl-xL is “♯”. This compound also showed a Ki on Bcl-2 of less than 800 nM.
On the same counts, the results for `CC(O)C1C(CO)ON(Cc2cccc(CN3Cc4ccccc4C3C(=O)N(C)C)c2)C1C(=O)NC1CC2CC(C1C)C2(C)C` (stereo not drawn) [Compound 469] are “♯” and less than 800 nM.
For `C[C@@H](O)[C@H]1[C@@H](CO)ON(Cc2cccc(C#CCNC(=O)c3ccccc3)c2)[C@H]1C(=O)NCc1ccc(Oc2ccccc2)cc1` [Compound 63], the “Bcl-XL binding affinity Ki” value at Bcl-xL is given as “♯”. Moreover, the Ki at Bcl-2 was 800 to 6000 nM.
As to `C[C@H](O)[C@@H]1[C@H](CO)ON(Cc2cccc(CN(CCN(C)C)Cc3ccccc3)c2)[C@@H]1C(=O)Nc1cccc(-c2ccccc2)c1` [Compound 515], the “Bcl-XL binding affinity Ki” value on Bcl-xL is “♯”. This compound gave a Ki at Bcl-2 of less than 800 nM.
The matching figures for `CC(C)NC(=O)c1cccc(-c2cccc(CN3O[C@@H](CO)[C@@H]([C@H](C)O)[C@H]3C(=O)N[C@H]3C[C@H]4C[C@@H]([C@@H]3C)C4(C)C)c2)c1` [Compound 217]: “♯” and less than 800 nM.
Consider `C[C@@H]1[C@@H](NC(=O)[C@@H]2[C@H]([C@H](C)O)[C@H](CO)ON2Cc2cccc(-c3cccc(C(=O)NCCc4c[nH]cn4)c3)c2)C[C@H]2C[C@@H]1C2(C)C` [Compound 127], for which the “Bcl-XL binding affinity Ki” value on Bcl-xL is given as “♯♯”. The compound also came in with a Ki on Bcl-2 of less than 800 nM.
With `CC(O)C1C(CO)ON(Cc2cccc(C(=O)NC(CN(C)C)c3ccccc3)c2)C1C(=O)NC1CC2CC(C1C)C2(C)C` (stereo not drawn) [Compound 506], the “Bcl-XL binding affinity Ki” value on Bcl-xL is recorded as “♯”. For the same compound, the Ki at Bcl-2 was less than 800 nM.
On the same counts, the results for `C[C@@H]1[C@@H](NC(=O)[C@@H]2[C@H]([C@H](C)O)[C@H](CO)ON2Cc2cccc(-c3cccc(C(=O)N[C@H]4CCNC4)c3)c2)C[C@H]2C[C@@H]1C2(C)C` [Compound 114] are “♯” and less than 800 nM.
In the case of `C[C@@H](O)[C@H]1[C@@H](CO)ON(Cc2cccc(C#CC3(O)CCCC3)c2)[C@H]1C(=O)NCC1CCCCC1` [Compound 40], the “Bcl-XL binding affinity Ki” value on Bcl-xL is “♯”. Besides, at Bcl-2, the Ki was greater than 50000 nM.
Consider `C[C@H](O)[C@@H]1[C@H](CO)ON(Cc2cccc(CN(CCN(C)C)CC3CCCCC3)c2)[C@@H]1C(=O)NC1C[C@H]2C[C@@H]([C@@H]1C)C2(C)C` (stereo partly drawn) [Compound 190], for which, on Bcl-xL, the “Bcl-XL binding affinity Ki” value was “♯”. The Ki at Bcl-2 was less than 800 nM.
Regarding `CCCNC(=O)c1cccc(-c2cccc(CN3O[C@@H](CO)[C@@H]([C@H](C)O)[C@H]3C(=O)N[C@H]3C[C@H]4C[C@@H]([C@@H]3C)C4(C)C)c2)c1` [Compound 135], the “Bcl-XL binding affinity Ki” value at Bcl-xL was “♯♯”. Moreover, the Ki at Bcl-2 was less than 800 nM.
On to `C[C@@H]1[C@@H](NC(=O)[C@@H]2[C@H]([C@H](C)O)[C@H](CO)ON2Cc2cccc(N3CCN(S(C)(=O)=O)CC3)c2)C[C@H]2C[C@@H]1C2(C)C` [Compound 293], for which the “Bcl-XL binding affinity Ki” value at Bcl-xL was “♯”. The same compound registered a Ki at Bcl-2 of less than 800 nM.
As to `COc1ccc(C(O)C#Cc2cccc(CN3O[C@H](CO)[C@H]([C@@H](C)O)[C@@H]3C(=O)NCCCN(C)c3ccccc3)c2)c(C)c1` (stereo partly drawn) [Compound 247], the “Bcl-XL binding affinity Ki” value on Bcl-xL was “♯”. Besides, the Ki on Bcl-2 is less than 800 nM.
As for `C[C@H](O)[C@@H]1[C@H](CO)ON(Cc2cccc(CN(CCN(C)C)Cc3ccccc3)c2)[C@@H]1C(=O)NCCc1cccc(Br)c1` [Compound 514], the “Bcl-XL binding affinity Ki” value at Bcl-xL is reported as “♯”. The same compound registered a Ki on Bcl-2 of 800 to 6000 nM.
On the same counts, the results for `COc1ccc(Br)cc1CN(Cc1cccc(CN2OC(CO)C(C(C)O)C2C(=O)NC2CC3CC(C2C)C3(C)C)c1)C(CC(C)C)CN(C)C` (stereo not drawn) [Compound 335] are “♯” and less than 800 nM.
Turning to `C[C@@H]1[C@@H](NC(=O)[C@@H]2C([C@H](C)O)[C@H](CO)ON2Cc2cccc(CN(CCN(C)C)C(c3ccccc3)c3ccccc3)c2)C[C@H]2C[C@@H]1C2(C)C` (stereo partly drawn) [Compound 441], the “Bcl-XL binding affinity Ki” value on Bcl-xL is given as “♯”. At Bcl-2, this compound returned a Ki of less than 800 nM.
For the compound `COCCOCCOc1cccc(CN(CCN(C)C)Cc2cccc(CN3OC(CO)C(C(C)O)C3C(=O)NC3CC4CC(C3C)C4(C)C)c2)c1` (stereo not drawn) [Compound 407], the “Bcl-XL binding affinity Ki” value on Bcl-xL is listed as “♯”. This compound also gave a Ki on Bcl-2 of less than 800 nM.
As for `C[C@@H]1[C@@H](NC(=O)[C@@H]2[C@H]([C@H](C)O)[C@H](CO)ON2Cc2cccc(CN(CCN(C)C)CC(C)(C)C)c2)C[C@H]2C[C@@H]1C2(C)C` [Compound 213], on Bcl-xL, the “Bcl-XL binding affinity Ki” value is listed as “♯”. The Ki on Bcl-2 is less than 800 nM.
For the compound `C[C@H](O)[C@@H]1[C@H](CO)ON(Cc2cccc(N3CCN(C(=O)N(C)C)CC3)c2)[C@@H]1C(=O)NC1C[C@H]2C[C@@H]([C@@H]1C)C2(C)C` (stereo partly drawn) [Compound 291], on Bcl-xL, the “Bcl-XL binding affinity Ki” value was “♯”. This compound also displayed a Ki at Bcl-2 of less than 800 nM.
As for `CCN(CC)CCN(CCN(CC)CC)C(=O)c1ccc(-c2cccc(CN3O[C@@H](CO)[C@@H]([C@H](C)O)[C@H]3C(=O)N[C@H]3C[C@H]4C[C@@H]([C@@H]3C)C4(C)C)c2)cc1` [Compound 188], the “Bcl-XL binding affinity Ki” value on Bcl-xL was “♯”. This compound also came in with a Ki at Bcl-2 of less than 800 nM.
As to `CC(O)C1C(CO)ON(Cc2cccc(C(=O)N(CCN(C)C)Cc3ccccc3)c2)C1C(=O)NC1CC2CC(C1C)C2(C)C` (stereo not drawn) [Compound 504], the “Bcl-XL binding affinity Ki” value on Bcl-xL is reported as “♯”. Moreover, on Bcl-2, the Ki is less than 800 nM.
The matching figures for `CC(O)C1C(CO)ON(Cc2cccc(CN(C)CC(=O)N(C)C)c2)C1C(=O)NC1CC2CC(C1C)C2(C)C` (stereo not drawn) [Compound 446]: “♯” and less than 800 nM.
On the same counts, the results for `CC(C)=CCC/C(C)=C/CNC(=O)[C@H]1[C@@H]([C@@H](C)O)[C@@H](CO)ON1Cc1cccc(C#CC(C)(O)c2ccccc2)c1` (stereo partly drawn) [Compound 45] are “♯” and 6000 to 50000 nM.
With `COc1cccc(CN(CCN(C)C)Cc2cccc(CN3OC(CO)C(C(C)O)C3C(=O)NC3CC4CC(C3C)C4(C)C)c2)c1` (stereo not drawn) [Compound 381], at Bcl-xL, the “Bcl-XL binding affinity Ki” value is “♯”. The compound also yielded an inhibition constant Ki at Bcl-2 of less than 800 nM.
On to `C[C@@H]1[C@@H](NC(=O)[C@@H]2[C@H]([C@H](C)O)[C@H](CO)ON2CCCCN(CCN(C)C)CC2CCCCC2)C[C@H]2C[C@@H]1C2(C)C` [Compound 553], for which the “Bcl-XL binding affinity Ki” value at Bcl-xL is “♯”. Also, at Bcl-2, the inhibition constant (Ki) was 800 to 6000 nM.
Regarding `C[C@@H]1[C@@H](NC(=O)[C@@H]2[C@H]([C@H](C)O)[C@H](CO)ON2Cc2cccc(-c3cccc(C(=O)NCCN4CCOCC4)c3)c2)C[C@H]2C[C@@H]1C2(C)C` [Compound 132], the “Bcl-XL binding affinity Ki” value on Bcl-xL is given as “♯♯”. Moreover, on Bcl-2, the Ki was less than 800 nM.
On the same counts, the results for `C[C@@H]1[C@@H](NC(=O)[C@@H]2[C@H]([C@H](C)O)[C@H](CO)ON2Cc2cccc(N3CCN(C(=S)NCCN4CCOCC4)CC3)c2)C[C@H]2C[C@@H]1C2(C)C` [Compound 264] are “♯” and less than 800 nM.
On to `C[C@@H]1[C@@H](NC(=O)[C@@H]2[C@H]([C@H](C)O)[C@H](CO)ON2Cc2cccc(-c3ccc(C(=O)N4CCOCC4)cc3)c2)C[C@H]2C[C@@H]1C2(C)C` [Compound 109], for which the “Bcl-XL binding affinity Ki” value at Bcl-xL is recorded as “♯”. This compound also displayed a Ki at Bcl-2 of less than 800 nM.
On the same counts, the results for `C[C@@H]1[C@@H](NC(=O)[C@@H]2[C@H]([C@H](C)O)[C@H](CO)ON2Cc2cccc(-c3cccc(C(=O)N[C@H]4CCN(C)C4)c3)c2)C[C@H]2C[C@@H]1C2(C)C` [Compound 126] are “♯” and less than 800 nM.
On to `C[C@@H](O)[C@H]1[C@@H](CO)ON(Cc2cccc(C#CCNC(=O)c3ccccc3)c2)[C@H]1C(=O)NCCNCc1ccccc1` [Compound 61], for which, at Bcl-xL, the “Bcl-XL binding affinity Ki” value is on record as “♯”. The Ki at Bcl-2 lay within 6000 to 50000 nM.
On to `CC(=O)Nc1ccc(-c2cccc(CN3O[C@@H](CO)[C@@H]([C@H](C)O)[C@H]3C(=O)NC3C[C@H]4C[C@@H]([C@@H]3C)C4(C)C)c2)cc1` (stereo partly drawn) [Compound 294], for which the “Bcl-XL binding affinity Ki” value at Bcl-xL is reported as “♯”. The same compound displayed a Ki at Bcl-2 of less than 800 nM.
As to `CSc1cccc(-c2cccc(CN3O[C@@H](CO)[C@@H]([C@H](C)O)[C@H]3C(=O)N[C@H]3C[C@H]4C[C@@H]([C@@H]3C)C4(C)C)c2)c1` [Compound 201], the “Bcl-XL binding affinity Ki” value on Bcl-xL is “♯”. Moreover, on Bcl-2, the Ki is less than 800 nM.
The matching figures for `COc1c(CN2O[C@@H](CO)[C@@H]([C@H](C)O)[C@H]2C(=O)N[C@H]2C[C@H]3C[C@@H]([C@@H]2C)C3(C)C)cccc1-c1ccc(C(=O)N(C)C)cc1` [Compound 174]: “♯” and less than 800 nM.
On to `CC(C)C[C@@H](CN(C)C)N(Cc1ccccc1)Cc1cccc(CN2O[C@@H](CO)[C@@H]([C@H](C)O)[C@H]2C(=O)NCCCNC(=O)OC(C)(C)C)c1` [Compound 543], for which the “Bcl-XL binding affinity Ki” value on Bcl-xL is reported as “♯”. Besides, at Bcl-2, the Ki is 6000 to 50000 nM.
Take `C[C@@H](O)[C@H]1[C@@H](CO)ON(Cc2cccc(C#CC(C)(O)c3ccccc3)c2)[C@H]1C(=O)NCC1CCCCC1` (stereo partly drawn) [Compound 37]: the “Bcl-XL binding affinity Ki” value on Bcl-xL is recorded as “♯”. Also, on Bcl-2, the inhibition constant Ki was 6000 to 50000 nM.
For `C[C@@H](O)[C@H]1[C@@H](CO)ON(Cc2cccc(C#CC(O)Cc3ccccc3)c2)[C@H]1C(=O)NCCCN(C)c1ccccc1` (stereo partly drawn) [Compound 39], the “Bcl-XL binding affinity Ki” value on Bcl-xL is “♯♯”. The Ki on Bcl-2 was in the range of 800 to 6000 nM.
On to `CC(O)[C@H]1[C@@H](CO)ON(Cc2cccc(C#CC(C)(C)c3ccccc3)c2)[C@H]1C(=O)NCCCN(C)c1ccccc1` (stereo partly drawn) [Compound 31], for which, at Bcl-xL, the “Bcl-XL binding affinity Ki” value is given as “♯”. Also, on Bcl-2, the Ki was 800 to 6000 nM.
`C[C@@H]1[C@@H](NC(=O)[C@@H]2[C@H]([C@H](C)O)[C@H](CO)ON2Cc2cccc(-c3ccc(C(=O)N(CCN(C)C)Cc4ccccc4)cc3)c2)C[C@H]2C[C@@H]1C2(C)C` [Compound 185]: at Bcl-xL, the “Bcl-XL binding affinity Ki” value is “♯”. On Bcl-2, this compound registered a Ki of less than 800 nM.
Consider `CC(C)C[C@@H](CN(C)C)N(Cc1ccccc1)Cc1cccc(CN2O[C@@H](CO)[C@@H]([C@H](C)O)[C@H]2C(=O)NCc2cccc(-c3ccccc3)c2)c1` [Compound 537], for which, at Bcl-xL, the “Bcl-XL binding affinity Ki” value is “♯”. In addition, the inhibition constant (Ki) on Bcl-2 fell in the range of 800 to 6000 nM.
